Measured values from paper PMC11595589, “A Pharmacokinetic and Bioavailability Study of Ecklonia cava Phlorotannins Following Intravenous and Oral Administration in Sprague–Dawley Rats” (Marine Drugs, 2024).

Tests used:
[1] = Relative polarity by RP-HPLC of EK-ECP; format: physicochemical; settings: RP-HPLC chromatogram of EK-ECP
Procedure: A further detailed analysis of the phlorotannins present in EK-ECP was performed to identify and quantify the major components (individual phlorotannins) by reversed phase high performance liquid chromatography (RP-HPLC). A representative HPLC (Column: CAPCELL PAK C18; Detector: UV 234 nm) chromatogram and the identification of major components are presented in Figure 3. As shown in the chromatogram, dieckol at retention time 15.65 min was the most notable compound in EK-ECP. The chromatogram could be divided to relatively high (6–13 min), mid (13~20 min) and low polarity region (20~27 min) and each region could be represented by the regionally most notable peak 8,8′-bieckol, dieckol and PFF-A, respectively. These three phlorotannins were selected for monitoring the blood samples upon administration of EK-ECP during pharmacokinetic (PK) experiment. Other minor phlorotannins than the three notable ones identified were 2-O-(2,4,6-Trihydroxyphenyl)-6,6′-bieckol (7.217 min), 6,6′-bieckol (7.717 min), 7-phloroeckol (7.717 min), 2-phloroeckol (9.883 min), eckol (10.450 min), dioxinodehydroeckol (23.100 min) and fucofuroeckol A (23.650 min). Other notable peaks, such as those at 12.133, 17.483, 20.833, and 21.250 min, remain unidentified due to the technical challenges in isolating and identifying the corresponding single compounds.
The hydroxyl protons observed in the phlorotannin structures are attached to aromatic rings, resulting in distinct downfield shifts (near 9 ppm) due to the electron-withdrawing effects of the aromatic system. This contrasts with the hydroxyl groups found in aliphatic alcohols in general. […]
^1H NMR (500 MHz) was acquired on Bruker Avance III 500 MHz NMR spectrometer (Bruker Corporation, Billerica, MA, USA) using DMSO-d6 as a solvent. […] To quantify the total polyphenolic content of EK-ECP, the Folin–Ciocalteu reagent was reacted with EK-ECP dissolved in 50% aqueous ethanol, and the resulting solution was analyzed using a UV–Vis spectrophotometer (SPECTROstarNano, BMG Labtech, Ortenberg, Germany) at 725 nm. […]

mouse-model = tested on: mouse-model; design: method as in PMID 16042079; settings: oral administration, mouse model ref 64; cited from earlier work
[2] = stated in the discussion without data or reference; cited from earlier work
[3] = Stability at pH 2 by UV–Vis spectroscopy (gastric juice degradation); format: physicochemical; settings: period of at least 5 h, unpublished data
Text: To address the potential reduction in bioavailability due to degradation by gastric juice, we evaluated the stability of dieckol as a representative compound of phlorotannins at a pH of 2 using UV–Vis spectroscopy.

gut microbial ecosystem = settings: hydroethanolic extract of Silvetia compressa ref 73; cited from earlier work

Row | Structure (SMILES) | relative polarity within the phlorotannin extract [1] | oral dose with CNS-directed effect (as low as) (mouse-model) [mg/kg/bw] | solubility in water [2] | stability at pH 2 [3] | metabolism during fermentation (gut microbial ecosystem)
1 | Oc1cc(O)cc(Oc2c(O)cc(O)c3c2Oc2c(cc(O)c(-c4c(O)cc5c(c4O)Oc4c(Oc6cc(O)cc(O)c6)c(O)cc(O)c4O5)c2O)O3)c1 [8,8′-bieckol] | the most hydrophilic |  |  |  | 
2 | Oc1cc(O)cc(Oc2c(O)cc(O)c3c2Oc2c(O)cc4oc5c(Oc6cc(O)cc(O)c6)c(O)cc(O)c5c4c2O3)c1 [PFF-A, phlorofucofuroeckol-A] | the most lipophilic | 0.2 | virtually insoluble in water |  | 
3 | Oc1cc(O)cc(Oc2c(O)cc(O)c3c2Oc2c(O)cc(Oc4c(O)cc(Oc5c(O)cc(O)c6c5Oc5c(O)cc(O)cc5O6)cc4O)cc2O3)c1 [dieckol] | in between | 1.0 |  | no significant changes | metabolized within eight hours of fermentation
